Test results as given in US20120255853A1, “Method for Producing Superoxide, Method for Evaluating Superoxide Scavenging Ability, Device for Producing Superoxide, and Device for Evaluating Superoxide Scavenging Ability” (Sapporo Medical University, priority 2009, published 2012).

Assays:
[1] = Inhibition of radical generation by SOD, superoxide generated by xanthine oxidase (ESR); assay type: biochemical; settings: SOD 0.5, 1, 1.5 U/mL; hypoxanthine 0.39 mmol/L, xanthine oxidase 0.2 U/mL; compared with riboflavin system
Procedure: Into a 50 mmol/L phosphate buffer with pH 7.4, hypoxanthine, CYPMPO (Radical Research Inc.), and diethylenetriaminopentaacetic acid (DETAPAC) were each added at 0.39 mmol/L, 10 mmol/L, and 0.1 mmol/L, respectively, to prepare an aqueous solution (SOD-free aqueous solution). Further, to this aqueous solution, SOD (Sigma) was added at a concentration of 0.5 U/mL, 1 U/mL, and 1.5 U/mL to separately prepare aqueous solutions with added SOD.
To each of the SOD-free aqueous solution and aqueous solutions with added SOD thus prepared, xanthine oxidase was added at 0.2 U/mL. Following a similar operation to Example 1 (2), each of the aqueous solutions was measured by ESR to obtain a spectrum. Subsequently, based on the spectrum thus obtained, the amount of a radical generated was quantified. Measurement by ESR was performed 60 seconds after the addition of xanthine oxidase.
Based on the quantification results of the amount of a radical generated in the present Examples (1) and (2), the radical generation-inhibitory rate by SOD was calculated by the following formula 5.
Radical generation-inhibitory rate by SOD=(S0−S)/[…] (Formula 5)

[2] = Inhibition of radical generation by SOD, superoxide generated by light irradiation of riboflavin (ESR); assay type: biochemical
Procedure: To the aqueous solution thus prepared, superoxide dismutase (SOD) (Sigma), which is an enzyme that specifically scavenges superoxide, was added at 10 U/mL to separately prepare an aqueous solution with added SOD.
The aqueous solutions prepared in the present Example (1) (aqueous solutions with or without SOD) were each introduced into the sample tube of the electron spin resonance device JES-RE1X (JEOL Ltd.). Using a xenon lamp, the sample tube was irradiated with visible light of 1500 lux for 30 seconds. Subsequently, a measurement was made by ESR under the following measurement conditions to obtain a spectrum. The spectrum of the SOD-free aqueous solution was obtained as Spectrum A, and the spectrum of the aqueous solution with added SOD was obtained as Spectrum B. The results thus obtained are shown in FIG. 10. […]
Following a similar operation to Example 1 (2), each of the aqueous solutions thus prepared was measured by ESR to obtain a spectrum. Based on the spectrum thus obtained, the amount of a radical generated was quantified.
Based on the quantification results of the amount of a radical generated in the present Examples (1) and (2), the radical generation-inhibitory rate by SOD was calculated by the following formula 5. […]

- Radical generation-inhibitory rate by SOD [1]: approximately the same values
Substance: superoxide dismutase [SOD]
- Radical generation-inhibitory rate by SOD ([2]; SOD 0.5, 1, 1.5 U/mL, light irradiation of riboflavin, compared with xanthine oxidase system): approximately the same values
- Superoxide scavenging (radicals generated with added SOD) ([2]; SOD 10 U/mL, riboflavin 1 μmol/L, EDTA 5 mmol/L, CYPMPO 10 mmol/L): generated a small amount of EDTA radicals but not superoxide
